Laboratory results reported in the supplement of paper PMC10949913.

Assays:
Assay in all cases: area under concentration-response curve (viability) (AUC (a.u.)); higher = less active
Conditions in all cases: 48 h
NCI-H295R = tested on: NCI-H295R
Procedure, shortened: (§1)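 Three adrenocortical carcinoma cell lines were plated in 1,536-well plates at 500–1,000 cells/well in 5 µL medium, and 23 nL of each library compound was added at 11 concentrations. After 48 h, CellTiter-Glo was applied for 15 minutes at room temperature before luminescence was read. Each plate's signals were normalised to vehicle and empty-well controls. AC50 and area under the curve were taken from fitted concentration-response curves, with only inhibitory or non-responding curve classes retained.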

CU-ACC1 = tested on: CU-ACC1
Procedure, shortened: as §1

CU-ACC2 = tested on: CU-ACC2
Procedure, shortened: as §1

| SMILES | area under concentration-response curve (NCI-H295R) | area under concentration-response curve (CU-ACC1) | area under concentration-response curve (CU-ACC2) |
| --- | --- | --- | --- |
| Cn1cc(-c2ccc(F)c(C(F)(F)F)c2)nc1C1CCN(c2ncnc3[nH]ncc23)CC1 | 510 | 471 | 555 |
| CC(=O)N1CCC(Nc2cc(C(=O)NC[C@H](O)CN3CCc4ccccc4C3)ncn2)CC1 | 473 | 450 | 558 |
| COc1cc2c(cc1OC)CC(=O)N(CCCN(C)C[C@H]1Cc3cc(OC)c(OC)cc31)CC2 | 542 | 486 | 601 |
| CCC/1=C/C2=C(C(=O)N1CC(=O)C3=CC=CC=C3)C(=C([N]2C)C(=O)NC4CCN(CC4)C(=O)CO)OCC(F)(F)F | 594 | 572 | 642 |
| CC1=CC=C2\N=C/3N(CC[C@@]3(O)C(=O)C2=C1)C4=CC=CC=C4 | 552 | 537 | 616 |
| CCCOc1ccc(C(=O)OCCN(CC)CC)cc1N | 481 | 377 | 530 |
| CC(C)NCC(O)c1ccc(O)c(O)c1 (stereo not given) | 502 | 487 | 548 |
| CC(C)(CO)[C@@H](O)C(=O)NCCC(=O)O | 509 | 506 | 487 |
| COc1ccc([S+](=O)([O-])NCc2ccc(C(=O)NCCc3ccc(Cl)cn3)cc2)cc1 | 614 | 565 | 654 |
| CCN(C(=O)c1ccccc1OC)c1cc2c(cc1N1CCNC[C@H]1C)n(C)c(=O)n2C | 510 | 544 | 628 |
| CC(=O)N1c2ccc(-c3ccc(C(=O)O)cc3)cc2[C@H](Nc2ccc(Cl)cc2)C[C@@H]1C | 497 | 380 | 548 |
| N=C(N)NN.N=C(N)NN.O=S(=O)(O)O | 524 | 503 | 559 |
| COc1ccc2c(C(=S)N(C)CC(=O)O)cccc2c1C(F)(F)F | 481 | 490 | 535 |
| COc1cc2ncnc(Nc3cccc(Br)c3)c2cc1OC | 527 | 395 | 583 |
| c1ccc(CNCc2ccc(CN3CCCNCCNCCCNCC3)cc2)nc1 | 542 | 514 | 601 |
| CO[C@H](C1COC1)C2=C(Cl)C3=C(CCN(C\C4=C(OC)\C=C(\C)NC4=O)C3=O)C(=C2)Cl | 536 | 496 | 579 |
| CC1Cc2ccccc2N1NC(=O)c1ccc(Cl)c([S+](N)(=O)[O-])c1 (stereo not given) | 531 | 488 | 583 |
| COCCNCc1ccc(-c2cc3nccc(Oc4ccc(NC(=O)C5(C(=O)Nc6ccc(F)cc6)CC5)cc4F)c3s2)nc1 | 374 | 302 | 414 |
| O=C1NC(=O)/C(=C/c2cccc(C(F)(F)F)c2)S1 | 449 | 463 | 511 |
| CCOP(=O)(OCC)C(C)NC(=O)N(CCCl)N=O (stereo not given) | 510 | 488 | 540 |

| SMILES | area under concentration-response curve (NCI-H295R) | area under concentration-response curve (CU-ACC1) | area under concentration-response curve (CU-ACC2) |
| --- | --- | --- | --- |
| CCCOc1ccn2c(C(C)=O)cc(-c3ccccc3[S+](C)(=O)[O-])c2c1 | 527 | 485 | 445 |
| COc1nccc(-c2c(-c3ccc(F)cc3)ncn2C2CCNCC2)n1 | 423 | 429 | 482 |
| CN1C(=O)C(=C\C2=C1N=C(NC3=CC=CC(=C3)C(O)=O)N=C2)/C4=C(Cl)C=CC=C4Cl | 483 | 515 | 528 |
| C[C@]12CC[C@H]3[C@@H](CCC4=CC(=O)CC[C@@H]43)[C@@H]1CC[C@@H]2OC(=O)CCc1ccccc1 | 498 | 461 | 534 |
| CNC[C@H](O)[C@@H](O)[C@H](O)[C@H](O)CO | 547 | 421 | 542 |
| N#Cc1ccc(C2CCCc3cncn32)cc1 (stereo not given) | 479 | 503 | 544 |
| C[C@H]1CN(C[C@@H](C)N1)C2=C(F)C3=C(C(=C2F)N)C(=O)\C(=C/N3C4CC4)C(O)=O | 537 | 512 | 503 |
| CCOC(=O)C(C)OC1=CC=CC2=C1\C=C/N(CC(=O)NC3=CC=C4OCCOC4=C3)C2=O (stereo not given) | 538 | 505 | 602 |
| C[S+](=O)([O-])c1ccc(Oc2cc(F)cc(C#N)c2)c2c1[C@H](O)C(F)(F)C2 | 603 | 571 | 645 |
| Cc1cn[nH]c1 | 524 | 492 | 575 |
| N[S+](=O)([O-])c1cc2c(cc1Cl)NC(C(Cl)Cl)N[S+]2(=O)[O-] (stereo not given) | 536 | 477 | 591 |
| Cc1ccc(-c2ncn(-c3ccc(Nc4nccc(-c5cccc(N6CCOCC6)c5)n4)cc3)n2)cn1 | 549 | 370 | 543 |
| C[C@@H]1CC[C@@]2(OC1)OC1CC3C4CC=C5CC(O)CCC5(C)C4CCC3(C)C1[C@@H]2C (stereo not given in full) | 465 | 470 | 527 |
| COc1ccc(CCC(=O)Nc2nc3ccc(Cl)cc3s2)cc1OC | 563 | 575 | 600 |
| Oc1ccc(-c2nc(-c3ccncc3)c(-c3ccc(F)cc3)[nH]2)cc1 | 475 | 493 | 574 |
| N#Cc1ccc(Cn2cncc2CN2CCN(c3cccc(Cl)c3)C(=O)C2)cc1 | 514 | 520 | 578 |
| CN(C)[S+](=O)([O-])c1ccc2c(c1)C(=Cc1cc3c([nH]1)CCCC3)C(=O)N2 | 576 | 594 | 655 |
| O=C(O)c1ccc(CN2CCC(CN[C@@H]3C[C@H]3c3ccccc3)CC2)cc1 | 490 | 465 | 540 |
| COC(=O)CCC1=C(C)C2=CC3=NC(=CC4=C(C)C(=C([NH]4)C=C\5N=C(C=C1[NH]2)\C(=C5C)CCC(O)=O)C=C)\C6=C\C=C(/[C@@H](C(=O)OC)[C@@]36C)C(=O)OC | 462 | 438 | 416 |
| Cn1c(=O)c2c(ncn2CC(O)CO)n(C)c1=O (stereo not given) | 483 | 437 | 531 |
